Source: patent publication US20070275925A1, “ASTHMA DIAGNOSIS AND THERAPY” (REGENTS OF THE UNIVERSITY OF CALIFORNIA, priority 2006, published 2007)
“Also recorded” adds a separate entry of the source.

Columns and labels:
epithelial brushings = test: Microarray gene expression in epithelial brushings, randomized placebo-controlled trial of inhaled fluticasone; format: in vivo, human
Method: In three cross sectional studies and a clinical trial, epithelial brushings were collected by bronchoscopy from 42 subjects with asthma, 16 current smokers without asthma, and 28 healthy controls. Cross-sectional studies comprised 2 visits, the first for characterization and the second for bronchoscopy. The clinical trial was a 10 week, randomized, double-blind, placebo-controlled trial specifically designed to determine the effects of inhaled fluticasone (500 μg twice daily) on airway gene expression and to relate gene expression changes to improvements in lung function (FIG. 1). Bronchoscopy was performed at baseline and repeated 1 week after starting study drug. Thirty-five subjects had adequate baseline bronchoscopy and 32 had RNA available from epithelial brushings at both bronchoscopies. Lung function was measured at intervals over the 8-week treatment period. Epithelial RNA from a subset of the subjects studied by microarray here have been used in other PCR based gene expression studies performed by our group.^4 Additional information is provided in the supplementary appendix.
Brushings yielded 1,300,000±800,000 cells of which 97±3% were epithelial. For microarray analysis, […] total epithelial RNA was amplified using NuGen Ovation RNA amplification system. Then 2.75 μg sscDNA was hybridized to Affymetrix U133 plus 2.0 arrays (>54,000 probe sets coding for 38,500 genes). Array images were analyzed using Affymetrix GeneChip Expression Analysis Software. Bioconductor^5 was used for quality control (affyPLM algorithm), preprocessing (RMA algorithm), cluster analysis, and linear modeling.^5-7 Raw array data are available from the Gene Expression Omnibus public database (http://www.ncbi.nlm.nih.gov/geo/, accession number pending). Selected microarray findings were confirmed by real-time PCR, enzyme linked immunosorbent assay (ELISA) or immunohistochemistry. In vitro studies of the effects of interleukin-13 (IL-13) on expression of selected genes were performed using primary airway epithelial cells grown at an air-liquid interface (additional detail in supplementary appendix).
For between group comparisons, t-test, rank-sum test or ANOVA followed by pair-wise analyses with Sidak correction were used as appropriate. Correlation of mRNA copy number by PCR (log transformed for normality) and lung function was performed using Pearson correlation. STATA version 9 software was used (StataCorp, College Station Tex.), and p<0.05 was taken as statistically significant. In microarray analyses, differential gene expression was assessed using linear models (controlling for age and gender). For between group comparisons, a Bonferroni corrected p-value<0.05 was used to identify differentially expressed genes. For the placebo-controlled trial, changes in gene expression from baseline to post-intervention were calculated and the mean changes in the fluticasone and placebo groups were compared. A two-fold change (either higher or lower in the fluticasone group as compared to placebo), was used to identify differentially expressed genes. Microarray analyses were performed using Bioconductor open source software^5 in the R statistical environment.
Protocol: This was a 6 visit, 10 week, randomized, double-blind, placebo-controlled trial specifically designed to determine the effects of inhaled fluticasone on airway gene expression and to relate those gene expression changes to improvements in lung function. After a one-week run-in/characterization period, subjects were randomized to receive 2 puffs BID of fluticasone propionate (250 μg/puff) or matching placebo for 8 weeks, followed by a one week run-out. Subjects were randomized in blocks designed to yield a greater number of subjects randomized to fluticasone as compared to placebo in order to maximize our ability to relate gene expression to lung function improvements within the intervention group. […]

[1] = Methacholine responsiveness (PC20) in the clinical trial; format: in vivo, human; conditions: 4 and 8 weeks
Method: Protocol: This was a 6 visit, 10 week, randomized, double-blind, placebo-controlled trial specifically designed to determine the effects of inhaled fluticasone on airway gene expression and to relate those gene expression changes to improvements in lung function. After a one-week run-in/characterization period, subjects were randomized to receive 2 puffs BID of fluticasone propionate (250 μg/puff) or matching placebo for 8 weeks, followed by a one week run-out. Subjects were randomized in blocks designed to yield a greater number of subjects randomized to fluticasone as compared to placebo in order to maximize our ability to relate gene expression to lung function improvements within the intervention group. […] Spirometry was measured at baseline, before both bronchoscopies, at 4 and 8 weeks after starting study medication, and after the one week run-out according to American Thoracic Society criteria using a dry rolling-seal spirometer (Model VRS2000, PDS Instrumentation, S&M Instrument Co., Doylestown, Pa.). Methacholine responsiveness was measured at baseline and at 4 and 8 weeks after starting study medication using a five-breath dosimeter method (modified from Chai et al).^5

[2] = fluticasone group as compared to placebo group, baseline to 1 week
[3] = fluticasone group, baseline to 1 week, asthmatics

CCC(=O)O[C@]1(C(=O)SCF)[C@H](C)C[C@H]2[C@@H]3C[C@H](F)C4=CC(=O)C=C[C@]4(C)[C@@]3(F)[C@@H](O)C[C@@]21C [fluticasone, fluticasone propionate]
CST1 gene expression in airway epithelial brushing from asthmatics treated with inhaled fluticasone (epithelial brushings; additional gene profiling experiments): upregulated | CST1 reduction by array (epithelial brushings; fluticasone arm as compared to the placebo arm): 2 fold | PRR4 gene expression change with fluticasone (epithelial brushings; fluticasone arm as compared to the placebo arm, asthmatic airway epithelial cells): only modestly reduced; also recorded: no significant change | Fold-difference Combined, 227061_at (CDNA FLJ44429 fis) (epithelial brushings; [2]): 2.0 fold | Fold-difference Combined, 228854_at (Transcribed locus) (epithelial brushings; [2]): 10.5 fold | Fold-difference Combined, 228858_at (Transcribed locus) (epithelial brushings; [2]): 2.8 fold | Fold-difference Combined, 230782_at (CDNA FLJ33419 fis) (epithelial brushings; [2]): 2.2 fold | Fold-difference Combined, 231262_at (Transcribed locus) (epithelial brushings; [2]): 2.8 fold | Fold-difference Combined, 244677_at (epithelial brushings; [2]): 2.3 fold | Fold-difference Combined, C6 (epithelial brushings; [2]): 2.2 fold | Fold-difference Combined, C14orf78 (epithelial brushings; [2]): 2.1 fold | Fold-difference Combined, CLCA1 (epithelial brushings; [2]): −2.4 fold | Fold-difference Combined, CST1 (epithelial brushings; [2]): −2.1 fold | Fold-difference Combined, FKBP51 (epithelial brushings; [2]): 4.4 fold | Fold-difference Combined, FXYD1 (epithelial brushings; [2]): 2.1 fold | Fold-difference Combined, GAS1 (epithelial brushings; [2]): 3.3 fold | Fold-difference Combined, GPR109B (epithelial brushings; [2]): 2.4 fold | Fold-difference Combined, HBA2 (epithelial brushings; [2]): 2.7 fold | Fold-difference Combined, HBB (epithelial brushings; [2]): 2.1 fold | Fold-difference Combined, HIF3A (epithelial brushings; [2]): 2.7 fold | Fold-difference Combined, KLF9 (epithelial brushings; [2]): 2.4 fold | Fold-difference Combined, LOC157381 (epithelial brushings; [2]): 2.1 fold | Fold-difference Combined, MUC13 (epithelial brushings; [2]): −2.0 fold | Fold-difference Combined, PHACTR3 (epithelial brushings; [2]): 3.2 fold | Fold-difference Combined, POSTN (epithelial brushings; [2]): −2.1 fold | Fold-difference Combined, PPP1R16B (epithelial brushings; [2]): 2.4 fold | Fold-difference Combined, SERPINB2 (epithelial brushings; [2]): −2.9 fold | Fold-difference Combined, TFCP2L1 (epithelial brushings; [2]): 3.0 fold | Fold-difference Combined, TSC22D3 (epithelial brushings; [2]): 2.5 fold | Fold-difference Combined, TU3A (epithelial brushings; [2]): 2.8 fold | Fold-difference Combined, UBD (epithelial brushings; [2]): −2.1 fold | Fold-difference Combined, UBE2H (epithelial brushings; [2]): 2.1 fold | Fold-difference Combined, WIPI49 (epithelial brushings; [2]): 2.0 fold | Fold-difference Flovent, 227061_at (CDNA FLJ44429 fis) (epithelial brushings; [3]): 1.6 fold | Fold-difference Flovent, 228854_at (Transcribed locus) (epithelial brushings; [3]): 7.3 fold | Fold-difference Flovent, 228858_at (Transcribed locus) (epithelial brushings; [3]): 2.4 fold | Fold-difference Flovent, 230782_at (CDNA FLJ33419 fis) (epithelial brushings; [3]): 2.1 fold | Fold-difference Flovent, 231262_at (Transcribed locus) (epithelial brushings; [3]): 2.4 fold | Fold-difference Flovent, 244677_at (epithelial brushings; [3]): 1.8 fold | Fold-difference Flovent, C6 (epithelial brushings; [3]): 1.6 fold | Fold-difference Flovent, C14orf78 (epithelial brushings; [3]): 1.8 fold | Fold-difference Flovent, CLCA1 (epithelial brushings; [3]): −2.7 fold | Fold-difference Flovent, CST1 (epithelial brushings; [3]): −2.4 fold | Fold-difference Flovent, FKBP51 (epithelial brushings; [3]): 3.6 fold | Fold-difference Flovent, FXYD1 (epithelial brushings; [3]): 1.4 fold | Fold-difference Flovent, GAS1 (epithelial brushings; [3]): 2.7 fold | Fold-difference Flovent, GPR109B (epithelial brushings; [3]): 1.9 fold | Fold-difference Flovent, HBA2 (epithelial brushings; [3]): 3.0 fold | Fold-difference Flovent, HBB (epithelial brushings; [3]): 2.5 fold | Fold-difference Flovent, HIF3A (epithelial brushings; [3]): 2.7 fold | Fold-difference Flovent, KLF9 (epithelial brushings; [3]): 2.2 fold | Fold-difference Flovent, LOC157381 (epithelial brushings; [3]): 1.7 fold | Fold-difference Flovent, MUC13 (epithelial brushings; [3]): −1.6 fold | Fold-difference Flovent, PHACTR3 (epithelial brushings; [3]): 3.1 fold | Fold-difference Flovent, POSTN (epithelial brushings; [3]): −2.1 fold | Fold-difference Flovent, PPP1R16B (epithelial brushings; [3]): 2.1 fold | Fold-difference Flovent, SERPINB2 (epithelial brushings; [3]): −2.5 fold | Fold-difference Flovent, TFCP2L1 (epithelial brushings; [3]): 3.1 fold | Fold-difference Flovent, TSC22D3 (epithelial brushings; [3]): 2.0 fold | Fold-difference Flovent, TU3A (epithelial brushings; [3]): 2.3 fold | Fold-difference Flovent, UBD (epithelial brushings; [3]): −2.0 fold | Fold-difference Flovent, UBE2H (epithelial brushings; [3]): 2.0 fold | Fold-difference Flovent, WIPI49 (epithelial brushings; [3]): 1.7 fold | PC20 methacholine improvements, fluticasone versus placebo [1]: not statistically different; also recorded: no statistically significant differences
